{"source": "patent US20090298752A1", "about": "“APLIDINE TREATMENT OF CANCERS” (PHARMA MAR, S.A., priority 1999, published 2009)", "assay": "Phase I, 1 h daily infusion x5 q3wk: toxicity and pharmacokinetics", "format": "in vivo, human", "procedure": "The objectives are to determine the Maximum Tolerated Dose, the Dose Limiting Toxicity (DLT), the pharmacokinetics (PK) and the recommended dose for phase 2 studies that can be given in a daily 1 hour IV infusion×5 days q 3 weeks. Patients with solid tumours and low and intermediate grade Non-Hodgkin's Lymphomas were eligible. The daily starting dose of aplidine was 80 μg/m^2. Cohorts of 3 patients (pts) are treated at each level with dose escalation according to toxicity, 20 patients were treated with 6 dose levels ranging from 80 μg-720 μg/m^2, 1 patient is presently at the dose of 960 μg/m^2. At total of 48 cycles were administered. Non-haematological toxicities were grade 1 and 2 with fatigue reported in most pts. Grade 1 hypersensitivity reactions were documented in 7 patients. Other toxicities included nausea, anorexia, diarrhoea, and anxiety. […] PK analysis was performed in treatment course 1. Aplidine concentrations were analysed by LC tandem mass spectrography. […] Potentially therapeutic plasma concentrations ([…]) were achieved. […] Accrual is ongoing at 960 μg/m^2.", "data": [{"substance": "aplidine", "values": [{"measurement": "DLT", "setting": "80-960 μg/m^2 daily x5", "result": "no DLT has been documented"}, {"measurement": "Bilirubin Grade 1", "setting": "DL 1, 80 ug/m^2", "result": 1}, {"measurement": "Diarrhoea Grade 1", "setting": "DL 1, 80 ug/m^2", "result": 1}, {"measurement": "Fatigue Grade 1", "setting": "DL 1, 80 ug/m^2", "result": 1}, {"measurement": "Fatigue Grade 2", "setting": "DL 1, 80 ug/m^2", "result": 2}, {"measurement": "Fever Grade 1", "setting": "DL 1, 80 ug/m^2", "result": 1}, {"measurement": "Fever Grade 2", "setting": "DL 1, 80 ug/m^2", "result": 1}, {"measurement": "Haemoglobin Grade 1", "setting": "DL 1, 80 ug/m^2", "result": 1}, {"measurement": "Haemoglobin Grade 2", "setting": "DL 1, 80 ug/m^2", "result": 2}, {"measurement": "Hyper-sensitivity Grade 1", "setting": "DL 1, 80 ug/m^2", "result": 1}, {"measurement": "Hyper-sensitivity Grade 2", "setting": "DL 1, 80 ug/m^2", "result": 1}, {"measurement": "Motor neuropathy Grade 1", "setting": "DL 1, 80 ug/m^2", "result": 3}, {"measurement": "Motor neuropathy Grade 2", "setting": "DL 1, 80 ug/m^2", "result": 2}, {"measurement": "Myalgia/weakness Grade 2", "setting": "DL 1, 80 ug/m^2", "result": 1}, {"measurement": "Nausea Grade 1", "setting": "DL 1, 80 ug/m^2", "result": 2}, {"measurement": "SGOT Grade 1", "setting": "DL 1, 80 ug/m^2", "result": 1}, {"measurement": "Sensory neuropathy Grade 1", "setting": "DL 1, 80 ug/m^2", "result": 2}, {"measurement": "Sensory neuropathy Grade 2", "setting": "DL 1, 80 ug/m^2", "result": 1}, {"measurement": "Haemoglobin Grade 3", "setting": "DL 1, 80 ug/m^2, doubtful", "result": 3}, {"measurement": "Diarrhoea Grade 1", "setting": "DL 2, 120 ug/m^2", "result": 2}, {"measurement": "Fatigue Grade 1", "setting": "DL 2, 120 ug/m^2", "result": 3}, {"measurement": "Haemoglobin Grade 1", "setting": "DL 2, 120 ug/m^2", "result": 2}, {"measurement": "Hyper-sensitivity Grade 1", "setting": "DL 2, 120 ug/m^2", "result": 1}, {"measurement": "Nausea Grade 1", "setting": "DL 2, 120 ug/m^2", "result": 1}, {"measurement": "SGOT Grade 1", "setting": "DL 2, 120 ug/m^2", "result": 1}, {"measurement": "Sensory neuropathy Grade 1", "setting": "DL 2, 120 ug/m^2", "result": 2}, {"measurement": "Granulocytes Grade 2", "setting": "DL 2, 120 ug/m^2, doubtful", "result": 1}, {"measurement": "Haemoglobin Grade 3", "setting": "DL 2, 120 ug/m^2, doubtful", "result": 1}, {"measurement": "Haemoglobin Grade 4", "setting": "DL 2, 120 ug/m^2, doubtful", "result": 2}, {"measurement": "CPK Grade 4", "setting": "DL 3, 240 ug/m^2", "result": 1}, {"measurement": "Creatinine Grade 1", "setting": "DL 3, 240 ug/m^2", "result": 2}, {"measurement": "Diarrhoea Grade 2", "setting": "DL 3, 240 ug/m^2", "result": 2}, {"measurement": "Fatigue Grade 1", "setting": "DL 3, 240 ug/m^2", "result": 1}, {"measurement": "Fatigue Grade 2", "setting": "DL 3, 240 ug/m^2", "result": 1}, {"measurement": "Fatigue Grade 3", "setting": "DL 3, 240 ug/m^2", "result": 1}, {"measurement": "Haemoglobin Grade 1", "setting": "DL 3, 240 ug/m^2", "result": 1}, {"measurement": "Haemoglobin Grade 2", "setting": "DL 3, 240 ug/m^2", "result": 1}, {"measurement": "Myalgia/weakness Grade 1", "setting": "DL 3, 240 ug/m^2", "result": 1}, {"measurement": "Nausea Grade 1", "setting": "DL 3, 240 ug/m^2", "result": 2}, {"measurement": "Nausea Grade 2", "setting": "DL 3, 240 ug/m^2", "result": 1}, {"measurement": "SGOT Grade 1", "setting": "DL 3, 240 ug/m^2", "result": 2}, {"measurement": "Sensory neuropathy Grade 1", "setting": "DL 3, 240 ug/m^2", "result": 1}, {"measurement": "Granulocytes Grade 1", "setting": "DL 3, 240 ug/m^2, doubtful", "result": 1}, {"measurement": "Granulocytes Grade 2", "setting": "DL 3, 240 ug/m^2, doubtful", "result": 2}, {"measurement": "Haemoglobin Grade 4", "setting": "DL 3, 240 ug/m^2, doubtful", "result": 2}, {"measurement": "Creatinine Grade 1", "setting": "DL 4, 360 ug/m^2", "result": 1}, {"measurement": "Diarrhoea Grade 1", "setting": "DL 4, 360 ug/m^2", "result": 1}, {"measurement": "Fatigue Grade 2", "setting": "DL 4, 360 ug/m^2", "result": 3}, {"measurement": "Fever Grade 1", "setting": "DL 4, 360 ug/m^2", "result": 1}, {"measurement": "Haemoglobin Grade 1", "setting": "DL 4, 360 ug/m^2", "result": 2}, {"measurement": "Haemoglobin Grade 2", "setting": "DL 4, 360 ug/m^2", "result": 2}, {"measurement": "Hyper-sensitivity Grade 1", "setting": "DL 4, 360 ug/m^2", "result": 1}, {"measurement": "Hyper-sensitivity Grade 2", "setting": "DL 4, 360 ug/m^2", "result": 1}, {"measurement": "Motor neuropathy Grade 1", "setting": "DL 4, 360 ug/m^2", "result": 1}, {"measurement": "Nausea Grade 1", "setting": "DL 4, 360 ug/m^2", "result": 1}, {"measurement": "Nausea Grade 3", "setting": "DL 4, 360 ug/m^2", "result": 1}, {"measurement": "SGOT Grade 1", "setting": "DL 4, 360 ug/m^2", "result": 2}, {"measurement": "Sensory neuropathy Grade 1", "setting": "DL 4, 360 ug/m^2", "result": 1}, {"measurement": "Sensory neuropathy Grade 2", "setting": "DL 4, 360 ug/m^2", "result": 1}, {"measurement": "Granulocytes Grade 1", "setting": "DL 4, 360 ug/m^2, doubtful", "result": 1}, {"measurement": "Haemoglobin Grade 3", "setting": "DL 4, 360 ug/m^2, doubtful", "result": 1}, {"measurement": "Haemoglobin Grade 4", "setting": "DL 4, 360 ug/m^2, doubtful", "result": 2}, {"measurement": "CPK Grade 1", "setting": "DL 5, 540 ug/m^2", "result": 1}, {"measurement": "Diarrhoea Grade 1", "setting": "DL 5, 540 ug/m^2", "result": 2}, {"measurement": "Fatigue Grade 2", "setting": "DL 5, 540 ug/m^2", "result": 2}, {"measurement": "Fatigue Grade 3", "setting": "DL 5, 540 ug/m^2", "result": 1}, {"measurement": "Fever Grade 2", "setting": "DL 5, 540 ug/m^2", "result": 1}, {"measurement": "Haemoglobin Grade 1", "setting": "DL 5, 540 ug/m^2", "result": 1}, {"measurement": "Haemoglobin Grade 2", "setting": "DL 5, 540 ug/m^2", "result": 1}, {"measurement": "Hyper-sensitivity Grade 1", "setting": "DL 5, 540 ug/m^2", "result": 1}, {"measurement": "Motor neuropathy Grade 1", "setting": "DL 5, 540 ug/m^2", "result": 1}, {"measurement": "Motor neuropathy Grade 2", "setting": "DL 5, 540 ug/m^2", "result": 1}, {"measurement": "Myalgia/weakness Grade 1", "setting": "DL 5, 540 ug/m^2", "result": 1}, {"measurement": "Nausea Grade 1", "setting": "DL 5, 540 ug/m^2", "result": 2}, {"measurement": "Nausea Grade 3", "setting": "DL 5, 540 ug/m^2", "result": 1}, {"measurement": "SGOT Grade 1", "setting": "DL 5, 540 ug/m^2", "result": 2}, {"measurement": "Sensory neuropathy Grade 1", "setting": "DL 5, 540 ug/m^2", "result": 2}, {"measurement": "Sensory neuropathy Grade 2", "setting": "DL 5, 540 ug/m^2", "result": 1}, {"measurement": "Granulocytes Grade 1", "setting": "DL 5, 540 ug/m^2, doubtful", "result": 1}, {"measurement": "Haemoglobin Grade 4", "setting": "DL 5, 540 ug/m^2, doubtful", "result": 2}, {"measurement": "Bilirubin Grade 1", "setting": "DL 6, 720 ug/m^2", "result": 1}, {"measurement": "CPK Grade 1", "setting": "DL 6, 720 ug/m^2", "result": 1}, {"measurement": "Diarrhoea Grade 1", "setting": "DL 6, 720 ug/m^2", "result": 1}, {"measurement": "Fatigue Grade 1", "setting": "DL 6, 720 ug/m^2", "result": 1}, {"measurement": "Fatigue Grade 4", "setting": "DL 6, 720 ug/m^2", "result": 1}, {"measurement": "Fever Grade 1", "setting": "DL 6, 720 ug/m^2", "result": 1}, {"measurement": "Haemoglobin Grade 2", "setting": "DL 6, 720 ug/m^2", "result": 2}, {"measurement": "Hyper-sensitivity Grade 3", "setting": "DL 6, 720 ug/m^2", "result": 1}, {"measurement": "Motor neuropathy Grade 3", "setting": "DL 6, 720 ug/m^2", "result": 1}, {"measurement": "Myalgia/weakness Grade 4", "setting": "DL 6, 720 ug/m^2", "result": 1}, {"measurement": "Nausea Grade 1", "setting": "DL 6, 720 ug/m^2", "result": 3}, {"measurement": "SGOT Grade 1", "setting": "DL 6, 720 ug/m^2", "result": 2}, {"measurement": "Sensory neuropathy Grade 1", "setting": "DL 6, 720 ug/m^2", "result": 1}, {"measurement": "Haemoglobin Grade 3", "setting": "DL 6, 720 ug/m^2, doubtful", "result": 2}, {"measurement": "Haemoglobin Grade 4", "setting": "DL 6, 720 ug/m^2, doubtful", "result": 2}, {"measurement": "Fatigue Grade 2", "setting": "DL 7, 960 ug/m^2", "result": 2}, {"measurement": "Haemoglobin Grade 2", "setting": "DL 7, 960 ug/m^2", "result": 2}, {"measurement": "Nausea Grade 1", "setting": "DL 7, 960 ug/m^2", "result": 1}, {"measurement": "Nausea Grade 2", "setting": "DL 7, 960 ug/m^2", "result": 1}, {"measurement": "Sensory neuropathy Grade 1", "setting": "DL 7, 960 ug/m^2", "result": 1}, {"measurement": "Granulocytes Grade 1", "setting": "DL 7, 960 ug/m^2, doubtful", "result": 1}, {"measurement": "Haemoglobin Grade 4", "setting": "DL 7, 960 ug/m^2, doubtful", "result": 1}, {"measurement": "haematological toxicities", "setting": "Example 10", "result": "no haematological toxicities"}, {"measurement": "plasma concentrations achieved", "setting": "Example 10", "result": "> 1000", "unit": "ng/mL"}, {"measurement": "Grade 1 hypersensitivity reactions", "setting": "Example 10, 20 patients", "result": 7, "unit": "patients"}, {"measurement": "neuropathy or myopathy", "setting": "Example 16", "result": "No clear evidence of neuropathy or myopathy"}, {"measurement": "total body / plasma clearance", "setting": "median", "result": 0.38, "unit": "L/min"}]}]}
